Test results published in ChEMBL document CHEMBL3638847, “Substituted piperidine compounds and their use as orexin receptor modulators” (2015).

Columns and labels:
[1] = target: T1, Orexin/Hypocretin receptor type 1 (Homo sapiens, UniProt O43613); test: (§1) Radioligand Binding Assay: Human Embryonic Kidney 293 cells (HEK293) stably expressing rat orexin 1 receptor(Genebank accession number NM_001525) or […] (CHO) stably expressing human orexin 1 receptor (Genebank accession number […]) were grown to confluency in DMEM (Hyclone, cat # SH30022), 10% FBS, IX Pen/Strep, IX sodium pyruvate, 10 mM HEPES, 600 ug/mL G418 and DMEM/F12 (Gibco, Cat #1 1039), 10%FBS, IX Pen/Strep, 600 ug/mL G418 media, respectively on 150 cm2 tissue culture plates, washed with 5 mM EDTA in PBS (HyClone Dulbecco's Phoshpate Buffered Saline IX with Calcium and Magnesium, Cat # SH30264.01, hereafter referred to simply as PBS) and scraped into 50 ml tubes. After centrifugation (2K xG, 5 min at 4 C), the supernatant was aspirated and the pellets frozen and stored at -80C. Cells were resuspended in PBS in the presence of 1 tablet of protease inhibitor cocktail (Roche, Cat. #1 1836145001) per 50 mL. Each cell pellet from a 15 cm plate was resuspended in 10 mL.; format: cell-based
T1 sequence (O43613 whole entry): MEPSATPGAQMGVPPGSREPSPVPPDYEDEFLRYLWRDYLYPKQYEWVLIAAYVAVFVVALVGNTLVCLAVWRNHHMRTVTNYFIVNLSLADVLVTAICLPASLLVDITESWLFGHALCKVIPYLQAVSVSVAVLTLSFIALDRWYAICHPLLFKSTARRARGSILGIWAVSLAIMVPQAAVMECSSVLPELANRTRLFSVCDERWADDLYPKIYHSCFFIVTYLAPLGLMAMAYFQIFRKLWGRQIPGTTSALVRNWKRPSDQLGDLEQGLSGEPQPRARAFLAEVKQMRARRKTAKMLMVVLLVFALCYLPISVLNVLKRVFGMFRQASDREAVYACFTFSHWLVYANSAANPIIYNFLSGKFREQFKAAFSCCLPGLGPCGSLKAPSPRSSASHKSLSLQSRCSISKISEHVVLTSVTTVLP

[2] = target: T2, Orexin/Hypocretin receptor type 1 (Rattus norvegicus, UniProt P56718); test: as §1; format: cell-based
T2 sequence (P56718 whole entry): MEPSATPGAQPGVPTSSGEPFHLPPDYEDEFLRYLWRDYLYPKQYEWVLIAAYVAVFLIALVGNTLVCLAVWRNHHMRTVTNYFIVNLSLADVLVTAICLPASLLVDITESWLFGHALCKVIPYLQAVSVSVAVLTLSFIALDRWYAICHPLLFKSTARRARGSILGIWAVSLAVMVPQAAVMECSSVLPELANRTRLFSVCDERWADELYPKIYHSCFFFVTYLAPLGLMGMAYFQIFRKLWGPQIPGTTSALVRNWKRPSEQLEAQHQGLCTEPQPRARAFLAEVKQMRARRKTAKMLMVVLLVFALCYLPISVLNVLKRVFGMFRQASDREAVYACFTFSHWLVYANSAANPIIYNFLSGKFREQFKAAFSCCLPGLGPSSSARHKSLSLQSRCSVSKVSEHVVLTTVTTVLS

[3] = target: T3, Orexin receptor type 2 (Homo sapiens, UniProt O43614); test: Radioligand Binding Assay: HEK293 stably expressing human orexin 2 receptor (Genebank accession numberNM_001526) were grown to confluency in DMEM (Hyclone, cat # SH30022) , 10%FBS, IX Pen/Strep, IX NaPyruvate, 10 mM HEPES, 600 ug/ml G418 media on 150 cm2 tissue culture plates, washed with 5 mM EDTA in PBS (HyClone Dulbecco's Phoshpate Buffered Saline IX with Calcium and Magnesium, Cat # SH30264.01, hereafter referred to simply as PBS) and scraped into 50 ml tubes. After centrifugation (2K xG, 5 min at 4°C), the supernatant was aspirated and the pellets frozen and stored at -80°C. Cells were resuspended in PBS in the presence of 1 tablet of protease inhibitor cocktail (Roche, Cat. #11836145001) per 50 mL. Each cell pellet from a 15 cm plate was resuspended in 10 mL, stored on ice, and homogenized for 45 sec just prior to addition to the reactions. Competition binding experiments in 96 well polypropylene plates were performed using [3H]-EMPA (Moraveck Corporation, specific activity = 29.6 Ci/mmol).
T3 sequence (O43614 whole entry): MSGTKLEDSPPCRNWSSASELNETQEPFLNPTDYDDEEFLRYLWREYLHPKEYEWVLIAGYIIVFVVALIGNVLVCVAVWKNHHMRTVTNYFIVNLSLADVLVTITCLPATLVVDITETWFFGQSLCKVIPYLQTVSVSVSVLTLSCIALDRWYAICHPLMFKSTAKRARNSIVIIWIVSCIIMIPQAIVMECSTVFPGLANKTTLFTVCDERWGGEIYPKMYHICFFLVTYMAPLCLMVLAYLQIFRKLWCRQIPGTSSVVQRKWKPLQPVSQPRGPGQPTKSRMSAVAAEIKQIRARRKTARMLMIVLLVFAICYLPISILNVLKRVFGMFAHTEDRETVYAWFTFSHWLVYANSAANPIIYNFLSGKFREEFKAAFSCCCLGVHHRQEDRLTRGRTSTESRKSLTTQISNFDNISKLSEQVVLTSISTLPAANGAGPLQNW

For `Cc1cnc(C(=O)N2CCC[C@@H](Nc3ccc(C(F)(F)F)cn3)[C@@H]2C)c(-c2ncccn2)c1`, the Ki [1] was 26 nM, the Ki [2] was 19 nM and the Ki [3] was 91 nM.
